Test results as given in patent US9840478B2 (MERCK SHARP & DOHME CORP., priority 2013, dated 2017).

Test system: HIV-1 (H9IIIB strain)
Experiment: Cell-based HIV infection assay using a reporter (Cell-Based), MT4-GFP cells
Conditions: Human immunodeficiency virus 1, MT4-GFP cells infected with HIV-1 H9IIIB; 50% normal human serum; mean of at least two independent experiments; read-out: Cell-based IP
Outline: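 MT4-GFP cells (HIV LTR-driven GFP) infected 24 h with HIV-1 H9IIIB at low MOI, then washed and plated with compounds in RPMI + 50% normal human serum, 0.4% DMSO final. Green cells counted at 24 and 48 h; R0 = 48 h/24 h ratio, inhibition normalized to DMSO and triple-drug control; IC50 from 4-parameter fit.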

| SMILES | IC50 |
| --- | --- |
| COC(=O)N[C@H](C(=O)Nc1cccc(F)c1CC[C@H]1CNC[C@@H](C)N1S(=O)(=O)c1ccc(OC(F)(F)F)cc1)[C@@H](c1ccc(F)cc1)c1cc(F)cc(F)c1 [Example 248, (βS)-β-(3,5-difluorophenyl)-4-fluoro-N-(3-fluoro-2-{2-[(2S,6R)-6-methyl-1-{[4-(trifluoromethoxy)phenyl]sulfonyl}piperazin-2-yl]ethyl}phenyl)-Nα-(methoxycarbonyl)-L-phenylalaninamide] | 45 nM |
| COC(=O)N[C@H](C(=O)Nc1cccc(F)c1CC[C@H]1CNC[C@H](C)N1S(=O)(=O)c1ccccc1Cl)[C@@H](c1ccc(Cl)cc1)C(C)C [Example 143, (βR)-4-chloro-N-[2-(2-{(2S,6S)-1-[(2-chlorophenyl)sulfonyl]-6-methylpiperazin-2-yl}ethyl)-3-fluorophenyl]-Nα-(methoxycarbonyl)-β-(1-methylethyl)-L-phenylalaninamide] | 570 nM |
| O=C(C[C@@H](c1ccc(F)cc1)c1cc(F)cc(F)c1)Nc1cncc(F)c1CC[C@H]1CNCCN1S(=O)(=O)c1cnc2ccccc2c1 [Example 321, (3S)-3-(3,5-difluorophenyl)-3-(4-fluorophenyl)-N-(5-fluoro-4-{2-[(2S)-1-(quinolin-3-ylsulfonyl)piperazin-2-yl]ethyl}pyridin-3-yl)propanamide] | 29 nM |
| COC(=O)N[C@H](C(=O)Nc1cccc(F)c1CC[C@H]1CNC[C@H](C)N1S(=O)(=O)C1CC1)[C@@H](c1ccc(Cl)cc1)C(C)C [Example 144, (βR)-4-chloro-N-(2-{2-[(2S,6S)-1-(cyclopropylsulfonyl)-6-methylpiperazin-2-yl]ethyl}-3-fluorophenyl)-Nα-(methoxycarbonyl)-β-(1-methylethyl)-L-phenylalaninamide] | 93 nM |
| CCCS(=O)(=O)N1CCNC[C@@H]1CCc1c(F)cncc1NC(=O)C[C@@H](c1ccc(F)cc1)c1cc(F)cc(F)c1 [Example 317, (3S)-3-(3,5-difluorophenyl)-3-(4-fluorophenyl)-N-(5-fluoro-4-{2-[(2S)-1-(propylsulfonyl)piperazin-2-yl]ethyl}pyridin-3-yl)propanamide] | 24 nM |
| C[C@@H]1CNC[C@H](CCc2c(F)cccc2NC(=O)[C@@H](N)[C@@H](c2cc(F)cc(F)c2)C2CCOCC2)N1S(=O)(=O)c1ccccc1 [Example 284, (βR)-3,5-difluoro-N-(3-fluoro-2-{2-[(2S,6R)-6-methyl-1-(phenylsulfonyl)piperazin-2-yl]ethyl}phenyl)-β-(tetrahydro-2H-pyran-4-yl)-L-phenylalaninamide] | 40 nM |
| C[C@@H]1CNC[C@H](CCc2c(F)cccc2NC(=O)[C@@H](N)[C@@H](c2ccc(Cl)cc2)c2cccc(F)c2)N1S(=O)(=O)C1CC1 [Example 204, (βS)-4-chloro-N-(2-{2-[(2S,6R)-1-(cyclopropylsulfonyl)-6-methylpiperazin-2-yl]ethyl}-3-fluorophenyl)-β-(3-fluorophenyl)-L-phenylalaninamide] | 80 nM |
| COC(=O)N[C@H](C(=O)Nc1cccc(F)c1CC[C@H]1CNC[C@H](C)N1S(=O)(=O)C1CC1)C(c1cccc(F)c1)c1cccc(F)c1 [Example 159, N-(2-{2-[(2S,6S)-1-(cyclopropylsulfonyl)-6-methylpiperazin-2-yl]ethyl}-3-fluorophenyl)-3-fluoro-β-(3-fluorophenyl)-Nα-(methoxycarbonyl)-L-phenylalaninamide] | 42 nM |
| COC(=O)N[C@H](C(=O)Nc1cccc(F)c1CC[C@H]1CNC[C@H](C)N1S(=O)(=O)c1ccccc1)[C@@H](c1ccc(Cl)cc1)C1CCOCC1 [Example 132, (βR)-4-chloro-N-(3-fluoro-2-{2-[(2S,6S)-6-methyl-1-(phenylsulfonyl)piperazin-2-yl]ethyl}phenyl)-Nα-(methoxycarbonyl)-β-(tetrahydro-2H-pyran-4-yl)-L-phenylalaninamide] | 11 nM |
| N[C@H](C(=O)Nc1cccc(F)c1CC[C@H]1CNCCN1S(=O)(=O)c1ccccc1)[C@@H](c1ccc(Cl)cc1)c1cc(F)cc(F)c1 [Example 43, (βS)-4-chloro-β-(3,5-difluorophenyl)-N-(3-fluoro-2-{2-[(2S)-1-(phenylsulfonyl)piperazin-2-yl]ethyl}phenyl)-L-phenylalaninamide] | 12 nM |
| COC(=O)N[C@H](C(=O)Nc1cccc(F)c1CC[C@H]1CNCCN1S(=O)(=O)c1ccccc1)[C@@H](c1ccc(Cl)cc1)c1cncc(C(F)(F)F)c1 [Example 66, (βS)-4-chloro-N-(3-fluoro-2-{2-[(2S)-1-(phenylsulfonyl)piperazin-2-yl]ethyl}phenyl)-Nα-(methoxycarbonyl)-β-[5-(trifluoromethyl)pyridin-3-yl]-L-phenylalaninamide] | 12 nM |
| C[C@@H]1CNC[C@H](CCc2c(F)cccc2NC(=O)[C@@H](N)[C@@H](c2ccc(F)cc2)c2cc(F)cc(F)c2)N1S(=O)(=O)c1ccccc1Cl [Example 230, (βS)-N-[2-(2-{(2S,6R)-1-[(2-chlorophenyl)sulfonyl]-6-methylpiperazin-2-yl}ethyl)-3-fluorophenyl]-β-(3,5-difluorophenyl)-4-fluoro-L-phenylalaninamide] | 290 nM |
| COC(=O)N[C@H](C(=O)Nc1cncc(F)c1CC[C@H]1CNCCN1S(C)(=O)=O)[C@@H](c1ccc(F)cc1)c1cc(F)cc(F)c1 [Example 48, methyl ((1S,2S)-1-(3,5-difluorophenyl)-3-((5-fluoro-4-(2-((S)-1-(methylsulfonyl)piperazin-2-yl)ethyl)pyridin-3-yl)amino)-1-(4-fluorophenyl)-3-oxopropan-2-yl)carbamate] | 66 nM |
| COC(=O)NC(C(=O)Nc1cccc(F)c1CC[C@H]1CNC[C@@H](C)N1S(=O)(=O)c1ccc(C(F)F)cc1)[C@@H](c1ccc(Cl)cc1)C1CCOCC1 (stereo partly drawn) [Example 266] | 26 nM |
| O=C(C[C@@H](c1ccc(Cl)cc1)C1CCS(=O)(=O)CC1)Nc1cccc(F)c1CC[C@H]1CNCCN1S(=O)(=O)c1ccccc1 [Example 36, (3R)-3-(4-chlorophenyl)-3-(1,1-dioxidotetrahydro-2H-thiopyran-4-yl)-N-(3-fluoro-2-{2-[(2S)-1-(phenylsulfonyl)piperazin-2-yl]ethyl}phenyl) propanamide] | 29 nM |
| O=C(C[C@@H](c1ccc(F)cc1)c1cc(F)cc(F)c1)Nc1cncc(F)c1CC[C@H]1CNCCN1S(=O)(=O)N1CCCCC1 [Example 325, (3S)-3-(3,5-difluorophenyl)-3-(4-fluorophenyl)-N-(5-fluoro-4-{2-[(2S)-1-(piperidin-1-ylsulfonyl)piperazin-2-yl]ethyl}pyridin-3-yl)propanamide] | 13 nM |
| CC(C)[C@H](c1ccc(Cl)cc1)[C@H](N)C(=O)Nc1cncc(F)c1CC[C@H]1CNC[C@@H](C)N1S(=O)(=O)c1ccccc1 [Example 254, (βR)-4-chloro-N-(5-fluoro-4-{2-[(2S,6R)-6-methyl-1-(phenylsulfonyl)piperazin-2-yl]ethyl}pyridin-3-yl)-β-(1-methylethyl)-L-phenylalaninamide] | 16 nM |
| O=C(C[C@@H](c1ccc(F)cc1)c1cc(F)cc(F)c1)Nc1cncc(F)c1CC[C@H]1CNCCN1S(=O)(=O)N1CCCC(F)(F)C1 [Example 332, (3S)-3-(3,5-difluorophenyl)-N-[4-(2-{(2S)-1-[(3,3-difluoropiperidin-1-yl)sulfonyl]piperazin-2-yl}ethyl)-5-fluoropyridin-3-yl]-3-(4-fluorophenyl)propanamide] | 410 nM |
| COC(=O)N[C@H](C(=O)Nc1cccc(F)c1CC[C@H]1CNCC2(CC2)CN1S(=O)(=O)c1ccccc1)[C@@H](c1ccc(F)cc1)C1CCOCC1 [Example 20, Methyl ((2S,3R)-1-((3-fluoro-2-(2-((S)-5-(phenylsulfonyl)-5,8-diazaspiro[2.6]nonan-6-yl)ethyl)phenyl)amino)-3-(4-fluorophenyl)-1-oxo-3-(tetrahydro-2H-pyran-4-yl)propan-2-yl)carbamate] | 21 nM |
| COC(=O)N[C@H](C(=O)Nc1cncc(F)c1CC[C@H]1CNCCN1S(=O)(=O)c1ccccc1)C(c1cccc(F)c1)c1cccc(F)c1 [Example 54, 3-fluoro-β-(3-fluorophenyl)-N-(5-fluoro-4-{2-[(2S)-1-(phenylsulfonyl)piperazin-2-yl]ethyl}pyridin-3-yl)-Nα-(methoxycarbonyl)-L-phenylalaninamide] | 9.8 nM |
| COC(=O)N[C@H](C(=O)Nc1cccc(F)c1CC[C@H]1CNC[C@H](C)N1S(=O)(=O)c1ccccc1)[C@@H](c1ccc(Cl)cc1)c1ccc(OC)nc1 [Example 119, (βS)-4-chloro-N-(3-fluoro-2-{2-[(2S,6S)-6-methyl-1-(phenylsulfonyl)piperazin-2-yl]ethyl}phenyl)-Nα-(methoxycarbonyl)-β-(6-methoxypyridin-3-yl)-L-phenylalaninamide] | 9.1 nM |
| N[C@H](C(=O)Nc1cncc(F)c1CC[C@H]1CNCCN1S(=O)(=O)c1ccccc1)[C@@H](c1ccc(Cl)cc1)c1cccc(F)c1 [Example 35, (βS)-4-chloro-β-(3-fluorophenyl)-N-(5-fluoro-4-{2-[(2S)-1-(phenylsulfonyl)piperazin-2-yl]ethyl}pyridin-3-yl)-L-phenylalaninamide] | 13 nM |
| C[C@@H]1CNC[C@H](CCc2c(F)cncc2NC(=O)[C@@H](N)[C@@H](c2ccc(F)cc2)c2cc(F)cc(F)c2)N1S(=O)(=O)C1CC1 [Example 15, (βS)—N-(4-{2-[(2S,6R)-1-(cyclopropylsulfonyl)-6-methylpiperazin-2-yl]ethyl}-5-fluoropyridin-3-yl)-β-(3,5-difluorophenyl)-4-fluoro-L-phenylalaninamide] | 18 nM |

Same assay, conditions: MT4-GFP cells infected with HIV-1 H9IIIB; 50% normal human serum; mean of at least two independent experiments; read-out: Cell-based IP

| SMILES | IC50 |
| --- | --- |
| CC(C)OCC1CNC[C@H](CCc2c(F)cccc2NC(=O)[C@@H](N)[C@@H](c2ccc(F)cc2)c2cc(F)cc(F)c2)N1S(=O)(=O)C1CC1 (stereo partly drawn) [Example 256, (βS)-N-[2-(2-{(2S)-1-(cyclopropylsulfonyl)-6-[(1-methylethoxy)methyl]piperazin-2-yl}ethyl)-3-fluorophenyl]-β-(3,5-difluorophenyl)-4-fluoro-L-phenylalaninamide] | 73 nM |
